Laboratory results published in patent US20120157448A1, “COMPOUNDS FOR TREATING NEURODEGENERATIVE DISEASES” (priority 2010, published 2012).

target: T1, BACE-1 (Homo sapiens, UniProt P56817); test: Cellular BACE-1 inhibition assay (in vitro cellular Amyloidβ 1-40 production, HTRF immunoassay); format: cell-based; details: not given
T1 construct: endogenous in cells; host or cells: HEK-293 cells stably transfected with wild type APP695
Protocol: Materials and Methods: HEK-293 cells stably transfected with a DNA construct containing the coding sequence for the wild type APP695 sequence were grown in Dulbecco's Modified Eagle Medium (“DMEM”) supplemented with 10% fetal bovine serum, penicillin/streptomycin and 150 μg/mL G418. Cells were plated in 96-well plates at 35,000 cells/well and allowed to attach for 8-12 hours. Media was changed to DMEM supplemented with 10% fetal bovine serum, penicillin/streptomycin 15 minutes prior to compound addition. Diluted compounds were then added at a final concentration of 0.5% DMSO. After 48 hours, 4 μL of media from each well was added to a corresponding well of a 384 well plate (Perkin Elmer Cat#6008280) containing the HTRF reagents. HTRF reagents were obtained from the CisBio Amyloid β 1-40 peptide assay kit (Cat#62B40PEC) and were prepared as follows anti-peptide β (1-40)-Cryptate and anti-peptide […] were stored in 2 plate aliquots at −80° C. Diluent and Reconstitution buffer were stored at 4° C. Aliquots of the two antibodies were diluted 1:100 with Reconstitution buffer, and this mixture was diluted 1:2 with Diluent. 12 μL of the reagent mixture was added to the required wells of the 384 well assay plate. The assay plate was incubated at 4° C. for 17 hours and then analyzed for fluorescence at 665 and 620 nm. The following compounds were tested in the above assay. Some compounds were tested more than once, and the average is reported below.

T1 sequence (P56817 46-501): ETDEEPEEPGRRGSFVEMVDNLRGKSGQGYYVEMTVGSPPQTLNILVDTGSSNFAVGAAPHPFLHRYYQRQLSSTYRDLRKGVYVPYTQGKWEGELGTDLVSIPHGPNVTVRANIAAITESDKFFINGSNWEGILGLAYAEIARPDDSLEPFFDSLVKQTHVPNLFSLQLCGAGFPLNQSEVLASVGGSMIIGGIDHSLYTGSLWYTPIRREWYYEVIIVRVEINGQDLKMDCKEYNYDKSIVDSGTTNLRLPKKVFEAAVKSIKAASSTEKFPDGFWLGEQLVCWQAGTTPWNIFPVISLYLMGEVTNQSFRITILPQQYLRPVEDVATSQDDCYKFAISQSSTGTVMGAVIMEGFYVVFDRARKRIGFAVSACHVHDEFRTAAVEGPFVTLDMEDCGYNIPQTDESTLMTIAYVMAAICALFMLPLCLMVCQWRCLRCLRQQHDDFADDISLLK

Row | Compound | IC50
1 | C[C@@]12CCOC[C@H]1C1(COC(N)=N1)c1cc(-c3cccnc3F)ccc1C2 (relative stereo) [Example 118, (4aR*,10aR*)-8-(2-fluoropyridin-3-yl)-4a-methyl-1,3,4,4a,5,10a-hexahydro-5′H-spiro[benzo[g]isochromene-10,4′-oxazol]-2′-amine] | 219 nM

same assay, conditions: inhibition of Amyloidβ 1-40 production; HEK-293 cells stably transfected with wild type APP695; 48 hours incubation; average where tested more than once; read-out: IC50

Row | IC50 | Compound
2 | 1330 nM | NC1=NC2(CO1)c1cc(-c3cccnc3F)ccc1OC1CCNC[C@@H]12 (mixture of isomers) [Example 41, rac-trans-(4a,10a)-8-(2-fluoropyridin-3-yl)-1,2,3,4,4a,10a-hexahydro-5′H-spiro[chromeno[3,2-c]pyridine-10,4′-oxazol]-2′-amine]
3 | 304 nM | NC1=NC2(CO1)c1cc(-c3cccnc3F)ccc1OC1CCN(CC(F)(F)F)C[C@@H]12 (mixture of isomers) [Example 44, rac-trans-(4a,10a)-8-(2-fluoropyridin-3-yl)-2-(2,2,2-trifluoroethyl)-1,2,3,4,4a,10a-hexahydro-5′H-spiro[chromeno[3,2-c]pyridine-10,4′-oxazol]-2′-amine]
4 | 86.6 nM | NC1=NC2(CS1)c1cc(-c3cncnc3)ccc1O[C@H]1CC(O)CC[C@@H]12 (relative stereo) [Example 26, (4a′S*,9a′R*)-2-amino-7′-(pyrimidin-5-yl)-1′,2′,3′,4′,4a′,9a′-hexahydro-5H-spiro[thiazole-4,9′-xanthen]-3′-ol]
5 | 7.8 nM | NC1=N[C@@]2(CO1)c1cc(-c3cncc(Cl)c3)ccc1OC1CC[C@H](OCC3CC3)C[C@@H]12 (relative stereo) [Example 28, (4R*,4a′S*,9a′R*)-7′-(5-chloropyridin-3-yl)-2′-(cyclopropylmethoxy)-1′,2′,3′,4′,4a′,9a′-hexahydro-5H-spiro[oxazole-4,9′-xanthen]-2-amine]
6 | 8.9 nM | NC1=N[C@]2(CO1)c1cc(-c3cncc(Cl)c3)ccc1OC1CC[C@H](OCC3CC3)C[C@@H]12 (relative stereo) [Example 29, (4S*,4a′S*,9a′R*)-7′-(5-chloropyridin-3-yl)-2′-(cyclopropylmethoxy)-1′,2′,3′,4′,4a′,9a′-hexahydro-5H-spiro[oxazole-4,9′-xanthen]-2-amine]
7 | 154 nM | C[C@]12CCCO[C@@H]1[C@]1(COC(N)=N1)c1cc(-c3cncc(F)c3)ccc1O2 (relative stereo) [Example 88, (4R*,4a′S*,10a′R*)-8′-(5-fluoropyridin-3-yl)-4a′-methyl-3′,4′,4a′,10a′-tetrahydro-2′H,5H-spiro[oxazole-4,10′-pyrano[3,2-b]chromen]-2-amine]
8 | 1340 nM | C[C@H]1OCCC2Oc3ccc(-c4cncc(Cl)c4)cc3[C@@]3(COC(N)=N3)[C@@H]21 (relative stereo) [Example 90, (1′R*4R*,4a′R*,10a′R*)-8′-(5-chloropyridin-3-yl)-1′-methyl-3′,4′,4a′,10a′-tetrahydro-1′H,5H-spiro[oxazole-4,10′-pyrano[4,3-b]chromen]-2-amine]
9 | 457 nM | NC1=N[C@@]2(CO1)c1cc(-c3cccnc3F)ccc1O[C@H]1CCN(C(=O)CC3CC3)C[C@@H]12 (relative stereo) [Example 218, 1-((4aS*,4′R*,10aR*)-2′-amino-8-(2-fluoropyridin-3-yl)-1,4,4a,10a-tetrahydro-5′H-spiro[chromeno[3,2-c]pyridine-10,4′-oxazol]-2(3H)-yl)-2-cyclopropylethanone]
10 | 41 nM | CC(C)CS(=O)(=O)N1CC[C@@H]2Oc3ccc(-c4cccnc4F)cc3[C@]3(COC(N)=N3)[C@H]2C1 (single isomer, unassigned) [Example 120]
11 | 47.3 nM | NC1=NC2(CO1)c1cc(-c3cccnc3F)ccc1OC1CCC(O)C[C@@H]12 (stereo in doubt) [Example 31, (4a′S*,9a′R*)-2-amino-7′-(2-fluoropyridin-3-yl)-1′,2′,3′,4′,4a′,9a′-hexahydro-5H-spiro[oxazole-4,9′-xanthen]-2′-ol]
12 | 118 nM | NC1=NC2(CO1)c1cc(-c3cncnc3)ccc1OC1CCC(O)C[C@@H]12 (stereo in doubt) [Example 32, (4a′S*,9a′R*)-2-amino-7′-(pyrimidin-5-yl)-1′,2′,3′,4′,4a′,9a′-hexahydro-5H-spiro[oxazole-4,9′-xanthen]-2′-ol]
13 | 90.2 nM | NC1=NC2(CS1)c1cc(-c3cncnc3)ccc1OC1CCC(O)C[C@@H]12 (stereo in doubt) [Example 34, (4a′S*,9aR*)-2-amino-7′-(pyrimidin-5-yl)-1′,2′,3′,4′,4a′,9a′-hexahydro-5,4-spiro[thiazole-4,9′-xanthen]-2′-ol]
14 | 421 nM | CCOCC1CCC2Oc3ccc(-c4cncc(Cl)c4)cc3C3(COC(N)=N3)[C@H]2O1 (stereo in doubt) [Example 98, (4a′S*,10a′R*)-8′45-chloropyridin-3-yl)-2′-(ethoxymethyl)-3′,4′,4a′,10a′-tetrahydro-2H,5H-spiro[oxazole-4,10′-pyrano[3,2-b]chromen]-2-amine]
15 | 64.2 nM | NC1=NC2(CO1)c1cc(-c3cncc(Cl)c3)ccc1OC1CCC(F)CC12 (stereo not shown) [Example 27, 7′-(5-chloropyridin-3-yl)-2′-fluoro-1′,2′,3′,4′,4a′,9a′-hexahydro-5H-spiro[oxazole-4,9′-xanthen]-2-amine]
16 | 2550 nM | NC1=NC2(CO1)c1cc(-c3cncc(Cl)c3)ccc1O[C@H]1CCC(O)C[C@H]12 (stereo partly shown) [Example 48, (4a′S,9a′S)-2-amino-7′-(5-chloropyridin-3-yl)-1′,2′,3′,4′,4a′,9a′-hexahydro-5H-spiro[oxazole-4,9′-xanthen]-2′-ol]

The next lines start with the compound.

Row | Compound | IC50
17 | NC1=NC2(CO1)c1cc(-c3cccnc3F)ccc1OC1CCN(C(=O)OCc3ccccc3)C[C@@H]12 (mixture of isomers) [Example 5, rac-trans-(4a,10a)-benzyl 2′-amino-8-(2-fluoropyridin-3-yl)-1,4,4a,10a-tetrahydro-5′H-spiro[chromeno[3,2-c]pyridine-10,4′-oxazole]-2(3H)-carboxylate] | 133 nM
18 | NC1=NC2(CO1)c1cc(-c3cncc(Cl)c3)ccc1OC1CCCCC12 (racemic) [Example 9, 7′-(5-chloropyridin-3-yl)-1′,2′,3′,4′,4a′,9a′-hexahydro-5H-spiro[oxazole-4,9′-xanthen]-2-amine] | 43.4 nM
19 | NC1=NC2(CO1)c1cc(NC(=O)c3ccc(Br)cn3)ccc1OC1CCCCC12 (racemic) [Example 17, N-(2-amino-1′,2′,3′,4′,4a′,9a′-hexahydro-5H-spiro[oxazole-4,9′-xanthene]-7′-yl)-5-bromopicolinamide] | 147 nM
20 | NC1=NC2(CO1)c1cc(-c3cncc(Cl)c3)ccc1O[C@@H]1CCCC[C@H]12 (single isomer, unassigned) [Example 10, 7′-(5-chloropyridin-3-yl)-1′,2′,3′,4′,4a′,9a′-hexahydro-5H-spiro[oxazole-4,9′-xanthen]-2-amine] | 58.5 nM
21 | NC1=NC2(CO1)c1cc(-c3cncnc3)ccc1OC1CCCCC12 (single isomer, unassigned) [Example 11, 7′-(pyrimidin-5-yl)-1′,2′,3′,4′,4a′,9a′-hexahydro-5H-spiro[oxazole-4,9′-xanthen]-2-amine] | 69.5 nM
22 | NC1=NC2(CO1)c1cc(-c3cncnc3)ccc1OC1CCCCC12 (single isomer, unassigned) [Example 12, 7′-(pyrimidin-5-yl)-1′,2′,3′,4′,4a′,9a′-hexahydro-5H-spiro[oxazole-4,9′-xanthen]-2-amine] | 60.7 nM
23 | Cc1nc(C(=O)Nc2ccc3c(c2)C2(COC(N)=N2)C2CCCCC2O3)co1 (single isomer, unassigned) [Example 14, N-(2-amino-1′,2′,3′,4′,4a′,9a′-hexahydro-5H-spiro[oxazole-4,9′-xanthene]-7′-yl)-2-methyloxazole-4-carboxamide] | 73.5 nM
24 | Cc1nc(C(=O)Nc2ccc3c(c2)C2(COC(N)=N2)[C@@H]2CCCCC2O3)co1 (single isomer, unassigned) [Example 15, N-(2-amino-1′,2′,3′,4′,4a′,9a′-hexahydro-5H-spiro[oxazole-4,9′-xanthene]-7′-yl)-2-methyloxazole-4-carboxamide] | 58.7 nM
25 | NC1=NC2(CO1)c1cc(NC(=O)c3ccc(Cl)cn3)ccc1OC1CCCCC12 (single isomer, unassigned) [Example 16, N-(2-amino-1′,2′,3′,4′,4a′,9a′-hexahydro-5H-spiro[oxazole-4,9′-xanthene]-7′-yl)-5-chloropicolinamide] | 171 nM
26 | NC1=NC2(CS1)c1cc(-c3cncc(Cl)c3)ccc1OC1CC(O)CC[C@@H]12 (single isomer, unassigned) [Example 25, (4a′S*,9aR*)-2-amino-7′-(5-chloropyridin-3-yl)-1′,2′,3′,4′,4a′,9a′-hexahydro-5H-spiro[thiazole-4,9′-xanthen]-3′-ol] | 24.1 nM
27 | CN1C(=O)CC2(N=C1N)c1cc(-c3cc(F)cc(Cl)c3)ccc1OC1CC3(CCC12)OCCO3 (stereo not shown) [Example 3, 2″-amino-7′-(3-chloro-5-fluorophenyl)-1″-methyl-2′,4′,4′a,5″,6″,9′a-hexahydro-1′H,1″H-dispiro[1,3-dioxolane-2,3′-xanthene-9′,4″-pyrimidine]-6″-one] | 3080 nM
28 | CN1C(=O)CC2(N=C1N)c1cc(-c3cc(F)cc(Cl)c3)ccc1OC1CC(=O)CCC12 (stereo not shown) [Example 4, 2-amino-7′-(3-chloro-5-fluorophenyl)-1-methyl-1′,4′,4a′,9a′-tetrahydro-1H-spiro[pyrimidine-4,9′-xanthene]-3′,6(2′H,5H)-dione] | 1190 nM
